Structures are written as SMILES. Where a name gives a salt, the structure may show the parent alone.

T1 sequence (P01106 whole entry): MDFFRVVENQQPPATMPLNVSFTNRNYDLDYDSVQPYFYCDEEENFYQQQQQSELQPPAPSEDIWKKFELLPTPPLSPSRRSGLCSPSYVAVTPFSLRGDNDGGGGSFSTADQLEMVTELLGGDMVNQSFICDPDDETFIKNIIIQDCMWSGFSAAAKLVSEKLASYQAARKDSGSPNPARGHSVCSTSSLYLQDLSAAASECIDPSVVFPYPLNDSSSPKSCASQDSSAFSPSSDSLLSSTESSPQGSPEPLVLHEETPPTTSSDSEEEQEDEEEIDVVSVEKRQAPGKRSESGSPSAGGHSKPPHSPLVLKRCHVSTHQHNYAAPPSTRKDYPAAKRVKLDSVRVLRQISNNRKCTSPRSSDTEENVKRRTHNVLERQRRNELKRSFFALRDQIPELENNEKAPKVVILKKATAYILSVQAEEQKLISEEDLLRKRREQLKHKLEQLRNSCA

This assay concerns the target T1, c-Myc/Max/Ebox DNA (Homo sapiens, UniProt P01106).
T1 construct: his6 (cleaved yes)
As to the kind of experiment: c-Myc/Max/Ebox DNA AlphaScreen Assay. In kind it is binding. Particulars: free c-Myc 20 nM, his6-Max 5 nM, biotinylated Ebox oligo 10 nM, 2 hour incubation. How it is done: Compounds of the invention were assayed for c-Myc/Max/EBox activity as described in the following protocol. Human his6-c-Myc and his6-Max were used with biotinylated DNA containing a single Ebox sequence (biotin[…]) purchased from MWG Operon. Free c-Myc was generated from his6-c-Myc through thrombin cleavage of the his6 tag. For 384-well plate assays, 10 μL of a 2× solution of free c-Myc (20 nM final), Ni^2+ coated Acceptor Beads (25 μg/ml final), and biotinylated Ebox oligo (10 nM final) were added to 384-well plates with a Biotek EL406 liquid handler. 50 nL of compounds from stock plates were added by pin transfer using a Janus Workstation (PerkinElmer), allowing the compounds to interact with c-Myc prior to c-Myc binding with Max. In the current assay, DMSO was not allowed to exceed 2% v/v of the assay. 10 μl of 2× master mix containing streptavidin-coated donor beads (25 μg/ml final) and his6-Max (5 nM) were added. AlphaScreen measurements were performed on an Envision plate reader (PerkinElmer) utilizing the manufacturer's protocol.
Both master mixes were made in room temperature assay buffer (50 mM HEPES, 150 mM NaCl, 0.2% w/v BSA, 0.02% w/v Tween20, 40 μg/ml glycogen, 500 μM DTT, pH 8.0, wherein both DTT and glycogen were added fresh). Alpha beads were added to respective master solutions. All subsequent steps were performed in low light conditions. Solution 1: 2× solution of components with final concentrations of c-Myc Ni-coated Acceptor Beads (25 μg/ml), and biotinylated Ebox oligo (10 nM). Solution 2: 2× solution of streptavidin-coated donor beads (25 μg/ml final) and his6-Max […]. Solution 1 was added to 384-well plate (AlphaPlate-384, PerkinElmer) with Biotek EL406 liquid handler and the plates were centrifuged very briefly. 50 nL of compounds from stock plates were added by pin transfer using a Janus Workstation. Solution 2 (10 μL) was added with the liquid handler. Plates were sealed with foil to block light exposure and prevent evaporation. Plates were very briefly centrifuged followed by 2 hour incubation. AlphaScreen measurements were performed on an Envision 2104 utilizing the manufacturer's protocol. Excitation was at 680 nm for donor bead release of singlet oxygen and emission was read with a bandpass filter from 520-620 nm. Glycogen: Roche Diagnostics #10901393001. Plate 1536: Perkin Elmer, 6004350. Plate 384: Perkin Elmer, 6005350. Nickel-His Alpha Beads: 6760619R. The data from this assay are summarized in Table 3 below (Myc/Max/DNA Activity).
For orientation: Alpha assays give light when donor and acceptor beads are brought close together.
`CC(=O)Nc1sc2c(c1-c1nc3cnccc3s1)CC(C)NC2C` (mixture of isomers) [Compound 109, N-(5,7-dimethyl-3-(thiazolo[4,5-c]pyridin-2-yl)-4,5,6,7-tetrahydrothieno[2,3-c]pyridin-2-yl)acetamide] yielded an IC50 of 500 to 5000 nM.
Next, `CC(=O)Nc1sc2c(c1-c1nc3cnccc3s1)CNC2` [Compound 102, N-(3-(thiazolo[4,5-c]pyridin-2-yl)-5,6-dihydro-4H-thieno[2,3-c]pyrrol-2-yl)acetamide]: 500 to 5000 nM; `CC(=O)Nc1sc2c(c1-c1nc3cnccc3s1)C(C)CNC2` (centres unmarked) [Compound 104, N-(4-methyl-3-(thiazolo[4,5-c]pyridin-2-yl)-4,5,6,7-tetrahydrothieno[2,3-c]pyridin-2-yl)acetamide]: 500 to 5000 nM.
With `CC(=O)Nc1sc2c(c1-c1nc3cnccc3s1)CCN(CCN1CCOCC1)C2` [Compound 112] the figure was 5000 to 25000 nM.
With `CC(=O)Nc1sc2c(c1-c1nc3cnccc3s1)CCN(C(C)C)C2` [Compound 115, N-(6-isopropyl-3-(thiazolo[4,5-c]pyridin-2-yl)-4,5,6,7-tetrahydrothieno[2,3-c]pyridin-2-yl)acetamide] the figure was 500 to 5000 nM; with `CCN1[C@@H](C)Cc2c(sc(NC(C)=O)c2-c2nc3cnccc3s2)[C@@H]1C` [Compound 120, N-((5S,7S)-6-ethyl-5,7-dimethyl-3-(thiazolo[4,5-c]pyridin-2-yl)-4,5,6,7-tetrahydrothieno[2,3-c]pyridin-2-yl)acetamide], 500 to 5000 nM.
For the compound `CC(=O)Nc1sc2c(c1-c1nc3cnccc3s1)CCN(CCN)C2` [Compound 121, N-(6-(2-aminoethyl)-3-(thiazolo[4,5-c]pyridin-2-yl)-4,5,6,7-tetrahydrothieno[2,3-c]pyridin-2-yl)acetamide hydrochloride], the half-maximal inhibitory concentration (IC50) lay within 500 to 5000 nM.
Next, `O=C(CCN1CC2(CNC2)C1)Nc1sc2c(c1-c1nc3cnccc3s1)CCNC2` [Compound 123]: less than 500 nM; `O=C(CCN1CCC[C@@]2(CCCN2)C1)Nc1sc2c(c1-c1nc3cnccc3s1)CCNC2` [Compound 124]: less than 500 nM.
With `O=C(CCN1CC2(CCOC2)C1)Nc1sc2c(c1-c1nc3cnccc3s1)CCNC2` [Compound 125] the figure was less than 500 nM.
Next, `O=C(CCN1CCC2(CCOC2)C1)Nc1sc2c(c1-c1nc3cnccc3s1)CCNC2` (centres unmarked) [Compound 126]: less than 500 nM.
For the compound `O=C(CCN1CCC2(CC2)C1)Nc1sc2c(c1-c1nc3cnccc3s1)CCNC2` [Compound 127], the IC50 was less than 500 nM.
Next, `O=C(CCN1CC2(C1)CS(=O)(=O)C2)Nc1sc2c(c1-c1nc3cnccc3s1)CCNC2` [Compound 128]: 500 to 5000 nM; `O=C(CCN1C[C@@H]2CC(F)(F)C[C@@H]2C1)Nc1sc2c(c1-c1nc3cnccc3s1)CCNC2` [Compound 129]: less than 500 nM.
Next, `O=C(CCN1CC2CCC2C1)Nc1sc2c(c1-c1nc3cnccc3s1)CCNC2` (centres unmarked) [Compound 130]: less than 500 nM; `O=C(CCN1CC2COCC2C1)Nc1sc2c(c1-c1nc3cnccc3s1)CCNC2` (centres unmarked) [Compound 131]: less than 500 nM.
With `CC1CC(NCCC(=O)Nc2sc3c(c2-c2nc4cnccc4s2)CCNC3)C1` (centres unmarked) [Compound 133] the figure was less than 500 nM; with `O=C(CCNCC1CCC1)Nc1sc2c(c1-c1nc3cnccc3s1)CCNC2` [Compound 135], less than 500 nM.
The compound `Cc1cc(C)n(CCNCCC(=O)Nc2sc3c(c2-c2nc4cnccc4s2)CCNC3)n1` [Compound 136] had a concentration for half-maximal inhibition (IC50) of 500 to 5000 nM.
Next, `C[C@H](NCCC(=O)Nc1sc2c(c1-c1nc3cnccc3s1)CCNC2)C1CC1` [Compound 137]: less than 500 nM; `CC(C)C[C@H](CO)NCCC(=O)Nc1sc2c(c1-c1nc3cnccc3s1)CCNC2` [Compound 138]: less than 500 nM; `O=C(CCNC(CO)c1ccc(F)cc1)Nc1sc2c(c1-c1nc3cnccc3s1)CCNC2` (centres unmarked) [Compound 139]: 500 to 5000 nM.
With `Cc1coc(CNCCC(=O)Nc2sc3c(c2-c2nc4cnccc4s2)CCNC3)n1` [Compound 140] the figure was 500 to 5000 nM; with `O=C(CCNCc1ccno1)Nc1sc2c(c1-c1nc3cnccc3s1)CCNC2` [Compound 141], less than 500 nM.
Turning to `O=C(CCN1CCC(c2ccc(Cl)cc2)CC1)Nc1sc2c(c1-c1nc3cnccc3s1)CCNC2` [Compound 143], the IC50 was in the range of 500 to 5000 nM.
With `CC1CN(CCC(=O)Nc2sc3c(c2-c2nc4cnccc4s2)CCNC3)CC(=O)N1` (centres unmarked) [Compound 144] the figure was 500 to 5000 nM; with `CC1CC1NCCC(=O)Nc1sc2c(c1-c1nc3cnccc3s1)CCNC2` (centres unmarked) [Compound 145], less than 500 nM; with `O=C(CCNC1CNCC1O)Nc1sc2c(c1-c1nc3cnccc3s1)CCNC2` (centres unmarked) [Compound 146], less than 500 nM.
Compound `O=C(CCNC1CCOC1)Nc1sc2c(c1-c1nc3cnccc3s1)CCNC2` (centres unmarked) [Compound 147] came in with an IC50 of less than 500 nM.
Next, `O=C(CCN[C@H]1COC[C@@H]1O)Nc1sc2c(c1-c1nc3cnccc3s1)CCNC2` [Compound 148]: less than 500 nM; `O=C(CCN1CCC(OC2CCC2)CC1)Nc1sc2c(c1-c1nc3cnccc3s1)CCNC2` [Compound 149]: less than 500 nM; `CN(C)[C@H]1CCN(CCC(=O)Nc2sc3c(c2-c2nc4cnccc4s2)CCNC3)C1` [Compound 150]: less than 500 nM.
With `COC1(C)CCN(CCC(=O)Nc2sc3c(c2-c2nc4cnccc4s2)CCNC3)CC1` [Compound 151] the figure was less than 500 nM; with `COCC1CCCCN1CCC(=O)Nc1sc2c(c1-c1nc3cnccc3s1)CCNC2` (centres unmarked) [Compound 152], less than 500 nM.
With `O=C(CCN1C[C@H]2CN[C@H]2C1)Nc1sc2c(c1-c1nc3cnccc3s1)CCNC2` [Compound 154] the figure was less than 500 nM; with `O=C(CCN1CC[C@@H]2NCC[C@@H]21)Nc1sc2c(c1-c1nc3cnccc3s1)CCNC2` [Compound 155], less than 500 nM.
`Cc1cc(CC(C)NCCC(=O)Nc2sc3c(c2-c2nc4cnccc4s2)CCNC3)on1` (centres unmarked) [Compound 156] showed an IC50 of less than 500 nM.
With `CN(CCC(=O)Nc1sc2c(c1-c1nc3cnccc3s1)CCNC2)Cc1cnc(Cl)s1` [Compound 157] the figure was 500 to 5000 nM; with `O=C(CCNCCN1CCCCC1=O)Nc1sc2c(c1-c1nc3cnccc3s1)CCNC2` [Compound 158], less than 500 nM; with `Cc1nc(C)c(CNCCC(=O)Nc2sc3c(c2-c2nc4cnccc4s2)CCNC3)s1` [Compound 159], 500 to 5000 nM.
Next, `O=C(CCNCc1cscn1)Nc1sc2c(c1-c1nc3cnccc3s1)CCNC2` [Compound 160]: less than 500 nM.
With `CN(C)C1CN(CCC(=O)Nc2sc3c(c2-c2nc4cnccc4s2)CCNC3)C1` [Compound 161] the figure was less than 500 nM; with `CN1CCN(CCC(=O)Nc2sc3c(c2-c2nc4cnccc4s2)CCNC3)CC1=O` [Compound 162], 500 to 5000 nM; with `O=C(CCN1CC2CCC(C1)O2)Nc1sc2c(c1-c1nc3cnccc3s1)CCNC2` [Compound 163], 500 to 5000 nM.
In turn, `CC1(C)CCCN1CCC(=O)Nc1sc2c(c1-c1nc3cnccc3s1)CCNC2` [Compound 164] returned an IC50 of less than 500 nM.
With `O=C(CCNC1CCNCC1)Nc1sc2c(c1-c1nc3cnccc3s1)CCNC2` [Compound 165] the figure was less than 500 nM; with `O=C(CCNCc1ccn[nH]1)Nc1sc2c(c1-c1nc3cnccc3s1)CCNC2` [Compound 166], less than 500 nM.

The term IC50 denotes the concentration at which inhibition is half-maximal. Low readings indicate inhibition by little substance, high ones a need for much substance.
